The results in this text go back to ChEMBL document CHEMBL4130413, “1-Aryl-1H- and 2-aryl-2H-1,2,3-triazole derivatives blockade P2X7 receptor in vitro and inflammatory response in vivo” (Eur J Med Chem, 2017).

Molecules are shown by their SMILES. Active and inactive are the calls of the source. No cut-off for these calls is given here.

The subject of one data set is Peritoneal macrophage. Description: Toxicity in Swiss mouse peritoneal macrophages assessed as LDH release at 10 uM after 60 mins relative to 0.05% Triton X-100. It is filed as cell-based. The following applies: 1 h.
For data set [1], the target named is T1, P2X purinoceptor 7 (Homo sapiens) (UniProt Q99572).
T1 sequence (whole entry): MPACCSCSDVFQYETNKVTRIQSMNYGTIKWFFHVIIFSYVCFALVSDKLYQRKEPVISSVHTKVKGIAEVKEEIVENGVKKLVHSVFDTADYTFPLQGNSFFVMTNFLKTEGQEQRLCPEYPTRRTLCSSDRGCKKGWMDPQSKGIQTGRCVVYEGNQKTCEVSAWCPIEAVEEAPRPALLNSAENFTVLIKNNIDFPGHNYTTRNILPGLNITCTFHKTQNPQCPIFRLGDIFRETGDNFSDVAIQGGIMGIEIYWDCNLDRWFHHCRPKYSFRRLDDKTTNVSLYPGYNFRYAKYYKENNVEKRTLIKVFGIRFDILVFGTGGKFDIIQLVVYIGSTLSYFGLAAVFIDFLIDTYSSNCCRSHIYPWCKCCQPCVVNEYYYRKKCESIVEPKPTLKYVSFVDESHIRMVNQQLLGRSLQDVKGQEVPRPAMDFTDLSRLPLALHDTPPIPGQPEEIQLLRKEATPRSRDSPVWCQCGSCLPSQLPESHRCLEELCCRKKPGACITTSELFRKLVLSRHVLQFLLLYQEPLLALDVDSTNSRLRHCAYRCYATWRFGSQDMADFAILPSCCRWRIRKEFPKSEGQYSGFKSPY
Description: Antagonist activity at human P2X7 receptor expressed in HEK293 cells assessed as inhibition of ATP-induced ethidium iodide uptake at 10 uM preincubated for 10 mins followed by ATP addition measured after 20 mins by FLIPR assay relative to 1 mM ATP. It is filed as cell-based.

In data set [2] the target is T2, P2X purinoceptor 7 (Mus musculus) (UniProt Q9Z1M0).
T2 sequence (whole entry): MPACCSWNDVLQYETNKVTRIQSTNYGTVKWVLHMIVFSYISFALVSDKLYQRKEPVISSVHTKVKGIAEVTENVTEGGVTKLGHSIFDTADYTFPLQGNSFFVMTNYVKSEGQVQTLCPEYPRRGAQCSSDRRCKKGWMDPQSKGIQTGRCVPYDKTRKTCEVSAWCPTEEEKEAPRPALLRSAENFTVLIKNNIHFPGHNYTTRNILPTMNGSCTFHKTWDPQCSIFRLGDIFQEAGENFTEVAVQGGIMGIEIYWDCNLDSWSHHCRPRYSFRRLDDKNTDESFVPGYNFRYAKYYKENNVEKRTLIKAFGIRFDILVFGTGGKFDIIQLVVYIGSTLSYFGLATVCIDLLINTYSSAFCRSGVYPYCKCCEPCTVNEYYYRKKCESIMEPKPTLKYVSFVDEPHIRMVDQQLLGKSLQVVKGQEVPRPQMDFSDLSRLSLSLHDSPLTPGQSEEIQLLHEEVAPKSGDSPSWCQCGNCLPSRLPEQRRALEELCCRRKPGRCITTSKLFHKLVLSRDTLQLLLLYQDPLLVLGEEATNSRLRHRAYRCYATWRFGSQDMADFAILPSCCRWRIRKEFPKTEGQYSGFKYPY
The data set can be described thus: (§1) Antagonist activity at P2X7 receptor in Swiss mouse peritoneal macrophages assessed as inhibition of ATP-induced propidium iodide uptake after 25 mins by flow cytometric analysis. On the technique in general: In flow cytometry, cells or beads pass a laser one at a time.

Data set [3] concerns the target T3, P2X purinoceptor 7 (Mus musculus, UniProt Q9Z1M0).
T3 sequence (Q9Z1M0 whole entry): T2 sequence (whole entry)
The description is as §1.

The target in data set [4] is T3, P2X purinoceptor 7. Description: Antagonist activity at P2X7 receptor in Swiss mouse peritoneal macrophages assessed as inhibition of ATP-induced current at holding potential of -60 mV preincubated for 5 mins followed by ATP addition measured after 5 mins by Whole cell patch-clamp analysis.
The nature of data set [5]: Cytotoxicity against Swiss mouse peritoneal macrophages after 24 hrs by LDH-release assay. It is filed as cell-based, Peritoneal macrophage.
Data set [6] deals with T4, P2X purinoceptor 7 (Homo sapiens, UniProt Q99572).
T4 sequence (Q99572 whole entry): T1 sequence (whole entry)
Description: Antagonist activity at human P2X7 receptor expressed in HEK293 cells assessed as inhibition of ATP-induced ethidium iodide uptake preincubated for 10 mins followed by ATP addition measured after 20 mins by spectrofluorometric analysis. It is filed as cell-based.

Data set [7] addresses T2, P2X purinoceptor 7 (Mus musculus). The data set can be described thus: Antagonist activity at mouse P2X7 receptor expressed in HEK293 cells assessed as inhibition of ATP-induced ethidium iodide uptake at 10 uM preincubated for 10 mins followed by ATP addition measured after 20 mins by FLIPR assay relative to 1 mM ATP. It is filed as cell-based.
The target in data set [8] is P2X purinoceptor 7 (Mus musculus) (UniProt Q9Z1M0). Description: Antagonist activity at P2X7 receptor in Swiss mouse peritoneal macrophages assessed as inhibition of ATP-induced propidium iodide uptake at 10 uM after 30 mins by FLIPR assay relative to 1 mM ATP.

The term inhibition denotes the percentage by which the read-out fell short of the control. As a reminder, the IC50 is the midpoint of a concentration-inhibition curve. Usually CC50 stands for the concentration at which the toxic effect on the cells reaches its halfway point. Lower therefore signals greater toxicity to the cells. On to `OCc1cnn(-c2ccccc2)n1`, for which the Activity in the data set with Peritoneal macrophage is given as 9.18%. Moreover, the inhibition in data set [1] is 90.2%; in data set [2], “Dose-dependent effect”; in [8], 84.2%. In addition, the results for the IC50 at P2X purinoceptor 7 [3], at P2X purinoceptor 7 [4] and at P2X purinoceptor 7 [6] were 96 nM, 81 nM and 522 nM, respectively. Also, it took 2360 nM to reach half-maximal cytotoxicity in data set [5] (CC50 at 24 h). Also, the inhibition entry in data set [7] is “Active”.

Take `CCOCc1cnn(-c2ccccc2)n1`: in the data set on Peritoneal macrophage, the Activity is 26.49%. In addition, the inhibition amounted to 79.1% in data set [1] and 70% in data set [8]. Further, in data set [7], the inhibition result was “Active”.

Regarding `CCCCCCCCCC(=O)OCc1cn(-c2ccc(Cl)cc2)nn1`, in the data set with Peritoneal macrophage, the Activity came to 8%. Besides, the results for the inhibition in data set [1], in data set [2] and in [8] were 78%, “Dose-dependent effect” and 76%, respectively. Also, the IC50 on P2X purinoceptor 7 [3] amounted to 107 nM; on P2X purinoceptor 7 [4] it was 103 nM; at P2X purinoceptor 7 [6] it was 108 nM. Besides, in data set [5], the CC50 at 24 h turned out to be 2840 nM.

Take `CCCCOCc1cn(-c2ccccc2)nn1`: the Activity in the data set with Peritoneal macrophage came to 32.33%. For the same compound, the figures for the inhibition in [1] and in data set [8] were 67.5% and 78.1%, respectively. For the same compound, in data set [7], the inhibition result was “Active”.

Consider `O/N=C/c1cnn(-c2ccccc2)n1`, for which, in the data set on Peritoneal macrophage, the Activity was 12.66%. Further, the figures for the inhibition in [1], in data set [2] and in data set [8] were 94.3%, “Dose-dependent effect” and 83%, respectively. Besides, the results for the IC50 at P2X purinoceptor 7 [3], at P2X purinoceptor 7 [4] and on P2X purinoceptor 7 [6] were 349 nM, 457 nM and 897 nM, respectively. The compound also registered a CC50 at 24 h in [5] of 250 nM. The inhibition entry in data set [7] is “Active”.

Take `COc1ccc(-n2cc(C=O)nn2)cc1`: the Activity in the data set with Peritoneal macrophage was 17.92%. Moreover, the inhibition in data set [1] turned out to be 50.3%; in data set [8], 44.3%.

Consider `CCCOCc1cn(-c2ccc(Cl)cc2)nn1`, for which the Activity in the data set with Peritoneal macrophage amounted to 26.66%. The inhibition in data set [1] turned out to be 62.4%; in data set [8], 32.5%.

`CCOCc1cn(-c2ccccc2)nn1`: the Activity with Peritoneal macrophage is reported as 52.73%. In addition, the values for the inhibition in data set [1] and in data set [8] were 56.7% and 49.3%, respectively.

Regarding `CCCOCc1cn(-c2ccccc2)nn1`, the Activity in the data set on Peritoneal macrophage was found to be 14.66%. The results for the inhibition in [1] and in data set [8] were 20.1% and 25.1%, respectively.

Consider `CCCOCc1cn(-c2cc(Cl)cc(Cl)c2)nn1`, for which the Activity in the data set on Peritoneal macrophage is on record as 14.03%. The figures for the inhibition in data set [1] and in data set [8] were 33.7% and 24%, respectively.

As to `O=Cc1cn(-c2cc(Cl)ccc2Cl)nn1`, in the data set on Peritoneal macrophage, the Activity was 13.73%. For the same compound, the inhibition in [1] came out at 44%; in data set [8] it was 36.7%.

Turning to `OCc1cn(-c2ccc(Cl)cc2)nn1`, in the data set on Peritoneal macrophage, the Activity was 15.57%. For the same compound, the inhibition in data set [1] stood at 26.1%; in data set [8], 22.5%.

Take `CCCOCc1cn(-c2cc(Cl)ccc2Cl)nn1`: the Activity in the data set with Peritoneal macrophage was found to be 22.66%. Moreover, the inhibition in data set [1] was 46.6%; in data set [8], 24%.

`O=C(OCc1cn(-c2cc(Cl)cc(Cl)c2)nn1)c1ccccc1`: in the data set on Peritoneal macrophage, the Activity was 24.02%. The inhibition in [1] was 2.96%; in [8], 14.2%.

As to `CCCCOCc1cn(-c2cc(Cl)ccc2Cl)nn1`, in the data set with Peritoneal macrophage, the Activity is reported as 11.66%. Besides, the inhibition was 90.1% in data set [1], “Dose-dependent effect” in data set [2] and 79.8% in [8]. In addition, the concentration for half-maximal inhibition (IC50) on P2X purinoceptor 7 [3] is 317 nM; on P2X purinoceptor 7 [4], 316 nM; on P2X purinoceptor 7 [6], 621 nM. This compound also came in with a CC50 at 24 h in data set [5] of 505 nM.

Take `O=C(OCc1cn(-c2cc(Cl)ccc2Cl)nn1)c1ccccc1`: in the data set on Peritoneal macrophage, the Activity came out at 26.66%. In addition, the inhibition is 3% in data set [1] and 11% in data set [8].

In the case of `COc1ccc(-n2cc(CO)nn2)cc1`, the Activity in the data set on Peritoneal macrophage amounted to 9.7%. In addition, the inhibition is 94.1% in data set [1], “Dose-dependent effect” in [2] and 86.3% in data set [8]. Moreover, the IC50 was determined as 488 nM at P2X purinoceptor 7 [3], 341 nM on P2X purinoceptor 7 [4] and 932 nM on P2X purinoceptor 7 [6]. Besides, the CC50 at 24 h in data set [5] is 363 nM. The inhibition result in [7] is “Active”.

Consider `O=C(OCc1cnn(-c2ccccc2)n1)C1CCCC1`, for which, in the data set on Peritoneal macrophage, the Activity is given as 43.04%. Moreover, the inhibition in data set [1] is 10.2%; in data set [8], 29.6%.

For the compound `CC(=O)OCc1cn(-c2cc(Cl)cc(Cl)c2)nn1`, the Activity with Peritoneal macrophage came out at 45.33%. The inhibition in data set [1] turned out to be 29.4%; in data set [8] it was 65.2%.

Consider `OCc1cn(-c2cc(Cl)ccc2Cl)nn1`, for which the Activity with Peritoneal macrophage is given as 12.09%. Besides, the results for the inhibition in data set [1] and in data set [8] were 38.1% and 28.3%, respectively.

`O/N=C/c1cn(-c2cc(Cl)cc(Cl)c2)nn1`: the Activity in the data set with Peritoneal macrophage was determined as 29.47%. In addition, the inhibition in [1] stood at 62.1%; in [8], 58%.

Take `O=Cc1cn(-c2ccccc2)nn1`: the Activity in the data set on Peritoneal macrophage was found to be 10.51%. The inhibition in data set [1] was 95.3%; in data set [2], “Dose-dependent effect”; in data set [8] it was 84.6%. In addition, the figures for the IC50 on P2X purinoceptor 7 [3], at P2X purinoceptor 7 [4] and at P2X purinoceptor 7 [6] were 167 nM, 103 nM and 478 nM, respectively. This compound returned a CC50 at 24 h in data set [5] of 3740 nM. Further, the inhibition entry in [7] is “Active”.

Regarding `CCCOCc1cnn(-c2ccccc2)n1`, in the data set on Peritoneal macrophage, the Activity is recorded as 13.33%. Further, the inhibition was 41.2% in data set [1] and 26.6% in [8].

As for `CCCCOCc1cn(-c2ccc(OC)cc2)nn1`, the Activity in the data set on Peritoneal macrophage is listed as 27.66%. Also, the figures for the inhibition in data set [1] and in [8] were 51.3% and 31.4%, respectively.

Regarding `CCOCc1cn(-c2cc(Cl)cc(Cl)c2)nn1`, the Activity with Peritoneal macrophage was found to be 34%. In addition, the inhibition was 51.2% in data set [1] and 36.5% in [8].

As for `CCCCCC(=O)OCc1cn(-c2ccc(Cl)cc2)nn1`, the Activity in the data set on Peritoneal macrophage came out at 34.19%. Also, the values for the inhibition in data set [1] and in data set [8] were 2.2% and 11.1%, respectively.
